Values after ≈ are worked out from the molar mass of the structure shown.
How the values were obtained:
L. donovani amastigotes = assay: INMAC assay: intramacrophage L. donovani in differentiated THP-1 cells; format: cell-based, Leishmania donovani; conditions: for loss of potency: INMAC, relative to compound 4; for EC50 / IC50: Leishmania donovani; for EC50: THP-1, Table 2, at least three replicates, SD ≤0.4, read-out: INMAC (pEC50) (converted); for IC50: THP-1, read-out: LdInMac pIC50 (converted)
Experimental: (§1) Intramacrophage L. donovani Assay. This assay was conducted as previously described, except for […]

[1] = FaSSIF (fasted state simulated intestinal fluid) solubility; format: physicochemical; conditions: for solubility at 4 h: pH 6.5, Table 2
Experimental: (§2) Intramacrophage L. donovani Assay. This assay was conducted as previously described, except for compound exposure time, which was 96 h instead of 72 h.4
(§3) Intrinsic Clearance. This assay was conducted as previously described.5 Aqueous Solubility. This assay was conducted as previously described.6
(§4) FaSSIF Solublity. This assay was conducted as previously described.5,7
(§5) In vivo Mouse Efficacy Studies. In vivo studies were carried out as previously described, with minor modifications.7 Briefly: Control drug used was Miltefosine (30 mg/kg orally, twice daily for 5 days), vehicle used was 10% (v/v) dimethyl sulfoxide (DMSO), 40% polyethylene glycol 400, and 50% deionized water (10 Ml/kg orally, twice daily for 5 days) and mice were treated with test compound intraperitoneally (50 mg/kg twice daily for 5 days). 5
(§6) All regulated procedures on living animals were carried out under the authority of a project license issued by the Home Office under the Animals (Scientific Procedures) Act 1986, as amended in 2012 (and in compliance with EU Directive EU/2010/63). Infected animals had access to food and water ad libitum and were housed under a 12 hour light/dark photoperiod. Animals used in these experiments were female NMRI and Balb/c mice (Harlan, UK).
(§7) Test compound DDD01008714 was dosed orally (P.O.) at 10 mg free base/kg (dose volume 10 mL/kg; dose vehicle: 10% (vol/vol) dimethyl sulfoxide (DMSO), 40% polyethylene glycol 400 (PEG400) and 50% deionized water) to female NMRI mice (n = 3) or intravenously (I.V.) at 3 mg free base/kg (dose volume 5 mL/kg; dose vehicle: 10% (vol/vol) dimethyl sulfoxide (DMSO) and 90% Saline) to female Balb/c mice (n = 3). Blood samples (10 μL) where taken from the tail vein of […]

[2] = Kinetic aqueous solubility by CLND; format: physicochemical
Experimental: We had successfully used these criteria in the hit to lead stage to identify compounds for in vivo proof-of-concept studies in another program, which subsequently led to the identification of preclinical candidate DDD853651/GSK3186899 active against CRK12.[7] […] A pharmacokinetic (PK) study was thus performed, dosed at 10 mg/kg po and 3 mg/kg iv. […] With the limited knowledge of the PK/PD drivers for the treatment of VL, we considered this to be a suitable profile for the progression of 4 into a previously reported mouse efficacy model of VL,[6],[7],[17],[18] where it was dosed twice daily at 50 mg/kg ip in order to further maximize exposure and give the best chance of achieving proof-of-concept.
as §2, §3, §4, §5, §6, §7

[3] = Mouse liver microsomal intrinsic clearance; format: in vitro ADME; conditions: for Mouse CLi: Table 2, mouse liver microsomes; for Cli (mouse, ml/min/g): supplementary csv
Experimental: as §2, §3, §4, §5, §6, §7

THP-1 cells = assay: THP-1 host cell read-out of the INMAC assay; format: cell-based; conditions: Homo sapiens, THP-1; for EC50: Table 2, read-out: THP-1 (pEC50) (converted); for IC50: supplementary csv, read-out: THP1 pIC50 (converted)
Experimental: as §1

[4] = Table 2, kinetic, CLND, read-out: Aq. solubility
[5] = supplementary csv, read-out: Aqueous Solubility

Molecule `O=C(Nc1cc(-c2cn3cc(N4CCOCC4)cnc3n2)ccc1F)N1CCCC1` [Compound 5, N-(2-Fluoro-5-(6-morpholinoimidazo[1,2-a]pyrimidin-2-yl)phenyl)pyrrolidine-1-carboxamide] has a loss of potency (L. donovani amastigotes) of over 10 fold, an EC50 (L. donovani amastigotes) of 15.8 µM and a solubility at 4 h [1] of 51 µM (≈ 20.9 µg/mL). For the same molecule, the solubility [2, 4] was 256 µM (≈ 105 µg/mL), the solubility [2, 5] was 260 µM (≈ 107 µg/mL) and the “Mouse CLi” value [3] was 0.9 mL/min/g. For the same molecule, the “Cli (mouse, ml/min/g)” value [3] was 0.9 mL/min/g, the EC50 (THP-1 cells) was over 50.1 µM and the IC50 (THP-1 cells) was over 50.1 µM.

With `O=C(Nc1cccc(-c2cn3cc(N4CCOCC4)cnc3n2)c1)N1CCCC1` [Compound 6, N-(3-(6-Morpholinoimidazo[1,2-a]pyrimidin-2-yl)phenyl)pyrrolidine-1-carboxamide] the loss of potency (L. donovani amastigotes) was over 10 fold, the EC50 (L. donovani amastigotes) was 12.6 µM and the “Mouse CLi” value [3] was 0.8 mL/min/g. For the same molecule, the “Cli (mouse, ml/min/g)” value [3] was 0.8 mL/min/g, the EC50 (THP-1 cells) was over 50.1 µM and the IC50 (THP-1 cells) was over 50.1 µM.

`COc1ccc(NC(=O)N2CCCC2)cc1-c1cn2cc(N3CCOCC3)cnc2n1` [Compound 7, N-(4-Methoxy-3-(6-morpholinoimidazo[1,2-a]pyrimidin-2-yl)phenyl)pyrrolidine-1-carboxamide] gave a loss of potency (L. donovani amastigotes) of over 10 fold, an IC50 (L. donovani amastigotes) of over 50.1 µM and an EC50 (L. donovani amastigotes) of over 50.1 µM. The solubility at 4 h [1] was 83 µM (≈ 35.1 µg/mL), the solubility [2, 4] was at least 425 µM and the solubility [2, 5] was at least 430 µM. For the same molecule, the “Mouse CLi” value [3] was under 0.5 mL/min/g, the “Cli (mouse, ml/min/g)” value [3] was under 0.5 mL/min/g and the EC50 (THP-1 cells) was over 50.1 µM. It also gave an IC50 (THP-1 cells) of over 50.1 µM.

In the case of `COc1ccc(-c2cn3cc(N4CCOCC4)cnc3n2)cc1NC(=O)N1CCCC1` [Compound 8, N-(2-Methoxy-5-(6-morpholinoimidazo[1,2-a]pyrimidin-2-yl)phenyl)pyrrolidine-1-carboxamide], the loss of potency (L. donovani amastigotes) was over 10 fold, the EC50 (L. donovani amastigotes) was 20 µM and the solubility ([1]; Table 2) was over 100 µM. The solubility at 4 h [1] was 265 µM (≈ 112 µg/mL), the solubility ([1]; supplementary csv) was 270 µM (≈ 114 µg/mL) and the solubility [2, 4] was at least 380 µM. For the same molecule, the “Mouse CLi” value [3] was 1.4 mL/min/g, the “Cli (mouse, ml/min/g)” value [3] was 1.4 mL/min/g and the EC50 (THP-1 cells) was over 50.1 µM. For the same molecule, the IC50 (THP-1 cells) was over 50.1 µM.

For `O=C(Nc1cccc(-c2cn3cc(N4CCOCC4)cnc3n2)n1)N1CCCC1` [Compound 9, N-(6-(6-Morpholinoimidazo[1,2-a]pyrimidin-2-yl)pyridin-2-yl)pyrrolidine-1-carboxamide], the loss of potency (L. donovani amastigotes) was over 10 fold, the IC50 (L. donovani amastigotes) was over 50.1 µM and the EC50 (L. donovani amastigotes) was over 50.1 µM. For the same molecule, the solubility at 4 h [1] was 80 µM (≈ 31.5 µg/mL), the solubility ([1]; supplementary csv) was 81 µM (≈ 31.9 µg/mL) and the solubility [2, 4] was at least 476 µM. The solubility [2, 5] was at least 480 µM, the “Mouse CLi” value [3] was under 0.5 mL/min/g and the “Cli (mouse, ml/min/g)” value [3] was under 0.5 mL/min/g. The EC50 (THP-1 cells) was over 50.1 µM and the IC50 (THP-1 cells) was over 50.1 µM.

For `O=C(Nc1cc(-c2cn3cc(N4CCOCC4)cnc3n2)ncn1)N1CCCC1` [Compound 10, N-(6-(6-Morpholinoimidazo[1,2-a]pyrimidin-2-yl)pyrimidin-4-yl)pyrrolidine-1-carboxamide], the loss of potency (L. donovani amastigotes) was over 10 fold, the IC50 (L. donovani amastigotes) was over 50.1 µM and the EC50 (L. donovani amastigotes) was over 50.1 µM. It also gave a solubility ([1]; Table 2) of over 100 µM, a solubility at 4 h [1] of 2050 µM (≈ 807 µg/mL) and a solubility ([1]; supplementary csv) of over 1000 µM. For the same molecule, the solubility [2, 4] was at least 435 µM, the solubility [2, 5] was at least 440 µM and the “Mouse CLi” value [3] was under 0.5 mL/min/g. For the same molecule, the “Cli (mouse, ml/min/g)” value [3] was under 0.5 mL/min/g, the EC50 (THP-1 cells) was over 50.1 µM and the IC50 (THP-1 cells) was over 50.1 µM.

`O=C(Nc1cncc(-c2cn3cc(N4CCOCC4)cnc3n2)n1)N1CCCC1` [Compound 11, N-(6-(6-Morpholinoimidazo[1,2-a]pyrimidin-2-yl)pyrazin-2-yl)pyrrolidine-1-carboxamide] gave a loss of potency (L. donovani amastigotes) of over 10 fold, an IC50 (L. donovani amastigotes) of over 50.1 µM and an EC50 (L. donovani amastigotes) of over 50.1 µM. For the same molecule, the solubility ([1]; Table 2) was over 100 µM, the solubility at 4 h [1] was 213 µM (≈ 84 µg/mL) and the solubility ([1]; supplementary csv) was 210 µM (≈ 82.8 µg/mL). For the same molecule, the solubility [2, 4] was at least 396 µM, the solubility [2, 5] was at least 400 µM and the “Mouse CLi” value [3] was under 0.5 mL/min/g. The “Cli (mouse, ml/min/g)” value [3] was under 0.5 mL/min/g, the EC50 (THP-1 cells) was over 50.1 µM and the IC50 (THP-1 cells) was over 50.1 µM.
